The values below come from PubChem BioAssay AID1259408 (Genetic Toxicology Data Bank (GENE-TOX), 2018).

Calls of active or inactive are those of the source. How the calls were made is not given here.

The data set has as its system GENE-TOX genotoxicity assays, various organisms and cells. Put plainly: GENE-TOX mutagenicity studies. As to conditions: for call: Assay Type: In vivo carcinogenicity studies.
Setting [1] is: Species/Cell Type: Escherichia coli polA (W3119 vs P3478), Assay Type: Rec-assay, DNA effects (bacterial DNA repair), Assay Code: RE1T, Evaluation Type: Evaluation A (Pre-1980).
Where [2] appears, read: Species/Cell Type: Human diploid fibroblasts, Assay Type: Unscheduled DNA synthesis (UDS) in vitro, DNA effects, Assay Code: UDH-, Evaluation Type: Evaluation A (Pre-1980).
The mark [3] stands for this setting: Species/Cell Type: Nonhuman, Assay Type: Sister-chromatid exchange (SCE) in vitro, Assay Code: SC2+, Evaluation Type: Evaluation A (Pre-1980).
Setting [4] is: Species/Cell Type: Salmonella typhimurium (one or more of the five standard strains: TA98, TA100, TA1535, TA1537, and TA1538), Assay Type: Histidine reverse gene mutation, Ames assay, Assay Code: SALT, Evaluation Type: Evaluation A (Pre-1980).
Where [5] appears, read: Species/Cell Type: Syrian hamster embryo (SHE) cells, Assay Type: Cell transformation, clonal assay, Assay Code: CTC-, Evaluation Type: Evaluation A (Pre-1980).
[6] abbreviates: Species/Cell Type: Nonhuman, Assay Code: CCG+, Evaluation Type: Evaluation A (Pre-1980).
Where [7] appears, read: Species/Cell Type: Syrian hamster embryo (SA7/SHE) cells, Assay Type: Cell transformation, viral enhanced, Assay Code: CT7+, Evaluation Type: Evaluation A (Pre-1980).
Setting [8] is: Species/Cell Type: Fischer rat embryo (RLV/1706) cells, Assay Type: Cell transformation, viral enhanced, Assay Code: CTR-, Evaluation Type: Evaluation A (Pre-1980).
Where [9] appears, read: Species/Cell Type: Human, Assay Type: Sister-chromatid exchange (SCE) in vitro, Assay Code: SC1+, Evaluation Type: Evaluation B (Post-1980).
[10] abbreviates: Species/Cell Type: Nonhuman, Assay Type: Sister-chromatid exchange (SCE) in vitro, Assay Code: SC2+D, Dose Response: With dose response, Evaluation Type: Evaluation B (Post-1980).
The mark [11] stands for this setting: Species/Cell Type: Salmonella typhimurium (one or more of the five standard strains: TA98, TA100, TA1535, TA1537, and TA1538), Assay Type: Histidine reverse gene mutation, Ames assay, Assay Code: SAL+, Evaluation Type: Evaluation A (Pre-1980).
[12] abbreviates: Species/Cell Type: Salmonella typhimurium (one or more of the five standard strains: TA98, TA100, TA1535, TA1537, and TA1538), Assay Type: Histidine reverse gene mutation, Ames assay, Assay Code: SAL+*, Activation: With metabolic activation, Evaluation Type: Evaluation A (Pre-1980).

For `CN(Cc1cnc2nc(N)nc(N)c2n1)c1ccc(C(=O)N[C@@H](CCC(=O)O)C(=O)O)cc1`, the mutagenic call runs as follows: (Species/Cell Type: Arabidopsis species, Assay Type: Gene mutation, Assay Code: ARM-, Evaluation Type: Evaluation A (Pre-1980)) “inactive; negative”; (Species/Cell Type: Escherichia coli WP2, Assay Type: Tryptophan reverse gene mutation, Assay Code: WP2+, Evaluation Type: Evaluation A (Pre-1980)) “active; positive”; under setting [1], “no conclusion”; under setting [2], “inactive; negative”; (Species/Cell Type: Human lymphocytes, Assay Type: Sister-chromatid exchange (SCE) in vivo, Assay Code: SCY+, Evaluation Type: Evaluation B (Post-1980)) “active; positive”; (Species/Cell Type: Human, Sex: Male, Assay Type: Sperm morphology, Assay Code: SPH+, Evaluation Type: Evaluation A (Pre-1980)) “active; positive”. For the same molecule, the mutagenic call was “active; positive” (Species/Cell Type: Mammalian oocytes or early embryo, Assay Type: Chromosome aberrations in vivo, Assay Code: CYO+D, Dose Response: With dose response, Evaluation Type: Evaluation A (Pre-1980)); “active; positive” (Species/Cell Type: Mammalian polychromatic erythrocytes, Assay Type: Micronucleus test, chromosome aberrations, Assay Code: MNT+, Evaluation Type: Evaluation A (Pre-1980)); “active; positive” (Species/Cell Type: Mouse (C3H/10T1/2) cells, Assay Type: Cell transformation, Assay Code: CTH+D, Dose Response: With dose response, Evaluation Type: Evaluation A (Pre-1980)); “active; positive” (Species/Cell Type: Mouse lymphoma (L5178Y) cells, Assay Type: Forward gene mutation at the thymidine kinase (TK) locus, chromosome aberrations, Assay Code: L51+, Evaluation Type: Evaluation A (Pre-1980)); “active; positive” (Species/Cell Type: Neurospora crassa, Assay Type: Aneuploidy, chromosome aberrations, Assay Code: NEN+, Evaluation Type: Evaluation A (Pre-1980)); “active; positive” (Species/Cell Type: Nonhuman, Assay Type: Chromosome aberrations in vitro, Assay Code: CY&+D, Dose Response: With dose response, Evaluation Type: Evaluation A (Pre-1980)). For the same molecule, the mutagenic call is, setting by setting: under setting [3], “active; positive”; (Species/Cell Type: Rodents, Sex: Male, Assay Type: Dominant lethal test, Assay Code: DLTT, Evaluation Type: Evaluation A (Pre-1980)) “no conclusion”; (Species/Cell Type: Saccharomyces cerevisiae, Assay Type: Mitotic recombination or gene conversion, Assay Code: YEH+, Evaluation Type: Evaluation A (Pre-1980)) “active; positive”; under setting [4], “no conclusion”; (Species/Cell Type: Serratia marcesens, Assay Type: Reverse gene mutation, host-mediated assay, Assay Code: HMC+, Evaluation Type: Evaluation A (Pre-1980)) “active; positive”; under setting [5], “inactive; negative”. Also, the call (Species/Cell Type: Nonhuman, Assay Code: CCG-L, Evaluation Type: Evaluation A (Pre-1980)) was “inactive; negative”.
For the molecule `[Cl][Pt-2]([Cl])([Cl])([Cl])([Cl])[Cl]`, the mutagenic call (Species/Cell Type: Bacillus subtilis (H17 vs M45), Assay Type: Rec-assay, spot test, DNA effects (bacterial DNA repair), Assay Code: REW+, Evaluation Type: Evaluation A (Pre-1980)) was “active; positive”.
In the case of `Cc1ccc(F)c2ccc3c4ccccc4ccc3c12`, under setting [4], the mutagenic call is “no conclusion”.
Take `O=Nc1ccc(Nc2ccccc2)cc1`: under setting [6], the call is “active; positive”.
For `NC(=O)CCl`, the mutagenic call under setting [7] was “active; positive”.
Consider `CCCCCCCCCCCCCC(=O)O[C@@H]1[C@@H](C)[C@@]2(O)[C@@H](C=C(CO)C[C@]3(O)C(=O)C(C)=C[C@@H]23)[C@@H]2C(C)(C)[C@]12OC(C)=O`, for which the mutagenic call by setting is: (Species/Cell Type: Chinese hamster lung (V79) cells, Assay Type: Forward gene mutation at the HPRT or ouabain locus, Assay Code: V79-, Evaluation Type: Evaluation A (Pre-1980)) “inactive; negative”; under setting [1], “no conclusion”; under setting [8], “inactive; negative”; under setting [9], “active; positive”; (Species/Cell Type: Mouse (C3H/10T1/2) cells, Assay Type: Cell transformation, Assay Code: CTH-, Evaluation Type: Evaluation A (Pre-1980)) “inactive; negative”; under setting [3], “active; positive”. The mutagenic call was “no conclusion” (Species/Cell Type: Nonhuman, Assay Type: Sister-chromatid exchange (SCE) in vitro, Assay Code: SC2T, Evaluation Type: Evaluation B (Post-1980)); “inactive; negative” (Species/Cell Type: Saccharomyces cerevisiae, Assay Type: Mitotic recombination or gene conversion, Assay Code: YEH-, Evaluation Type: Evaluation A (Pre-1980)); “inactive; negative” (Species/Cell Type: Salmonella typhimurium (one or more of the five standard strains: TA98, TA100, TA1535, TA1537, and TA1538), Assay Type: Histidine reverse gene mutation, Ames assay, Assay Code: SAL-, Evaluation Type: Evaluation A (Pre-1980)); “inactive; negative” under setting [5].
For `[Be+2]`, the mutagenic call (Species/Cell Type: Bacillus subtilis (H17 vs M45), Assay Type: Rec-assay, spot test, DNA effects (bacterial DNA repair), Assay Code: REW-, Evaluation Type: Evaluation A (Pre-1980)) is “inactive; negative”.
Consider `c1ccc2nc3c(ccc4ccccc43)cc2c1`, for which the mutagenic call under setting [10] is “active; positive”.
For the molecule `NC(=O)/C=C/c1ccc([N+](=O)[O-])o1`, the mutagenic call (Species/Cell Type: Human diploid fibroblasts, Assay Type: Unscheduled DNA synthesis (UDS) in vitro, DNA effects, Assay Code: UDH+, Evaluation Type: Evaluation A (Pre-1980)) was “active; positive” and the mutagenic call under setting [11] was “active; positive”.
Consider `COC(=O)C1=CCCN(N=O)C1`, for which the mutagenic call was “no conclusion” (Species/Cell Type: Drosophila melanogaster, Assay Type: Sex-linked recessive lethal gene mutation, Assay Code: SRLT, Evaluation Type: Evaluation A (Pre-1980)) and “active; positive” under setting [12].
As to `NC(N)=O`, the mutagenic call reads like this: (Species/Cell Type: Allium cepa, Assay Type: Chromosome aberrations, Assay Code: ALC+D, Dose Response: With dose response, Evaluation Type: Evaluation A (Pre-1980)) “active; positive”; under setting [1], “no conclusion”; (Species/Cell Type: Glycine max (soybean), Assay Type: Gene mutation, Assay Code: GLM-, Evaluation Type: Evaluation A (Pre-1980)) “inactive; negative”; (Species/Cell Type: Human lymphocytes or leukocytes, Assay Type: Chromosome aberrations in vitro, Assay Code: CY7+, Evaluation Type: Evaluation A (Pre-1980)) “active; positive”; (Species/Cell Type: Mouse, Sex: Male, Assay Type: Sperm morphology, Assay Code: SPI-, Evaluation Type: Evaluation A (Pre-1980)) “inactive; negative”; (Species/Cell Type: Plant, Assay Type: Micronucleus test, chromosome aberrations, Assay Code: MNP+, Evaluation Type: Evaluation A (Pre-1980)) “active; positive”.
For `Cc1cc2ccccc2c2ccc3ccccc3c12`, the call under setting [6] was “active; positive”. Moreover, under setting [12], the mutagenic call is “active; positive”.
Turning to `CCC(=O)Oc1ccc(/C(CC)=C(\CC)c2ccc(OC(=O)CC)cc2)cc1`, the mutagenic call was “active; positive” (Species/Cell Type: Human lymphocytes, Assay Type: Sister-chromatid exchange (SCE) in vitro, Assay Code: SCL+, Evaluation Type: Evaluation B (Post-1980)); “active; positive” under setting [9]; “no conclusion” (Species/Cell Type: Nonhuman, Assay Type: Sister-chromatid exchange (SCE) in vivo, Assay Code: SC3T, Evaluation Type: Evaluation B (Post-1980)); “active; positive” (Species/Cell Type: Saccharomyces cerevisiae, Assay Type: Aneuploidy, chromosome aberrations, Assay Code: YEN+, Evaluation Type: Evaluation A (Pre-1980)).
Turning to `O=P(N1CC1)(N1CC1)N1CCN(P(=O)(N2CC2)N2CC2)CC1`, the mutagenic call is, setting by setting: (Species/Cell Type: Human lymphocytes, Assay Type: Sister-chromatid exchange (SCE) in vitro, Assay Code: SCL+D, Dose Response: With dose response, Evaluation Type: Evaluation B (Post-1980)) “active; positive”; (Species/Cell Type: Human, Assay Type: Sister-chromatid exchange (SCE) in vitro, Assay Code: SC1+D, Dose Response: With dose response, Evaluation Type: Evaluation B (Post-1980)) “active; positive”; under setting [10], “active; positive”.
As for `O=[N+]([O-])c1ccc(N2CC2)c2c1no[n+]2[O-]`, under setting [11], the mutagenic call is “active; positive”.
As to `CC[C@@H](CO)NCCN[C@@H](CC)CO`, the mutagenic call (Species/Cell Type: Mammalian polychromatic erythrocytes, Assay Type: Micronucleus test, chromosome aberrations, Assay Code: MNT+U, Dose Response: Unconfirmed positive response, Evaluation Type: Evaluation B (Post-1980)) was “active; positive”.
As for `NC12CC3CC(CC(C3)C1)C2`, the mutagenic call under setting [8] was “inactive; negative”.
With `CC(=O)Nc1ccc(-c2ccccc2)cc1`, under setting [2], the mutagenic call was “inactive; negative”.
As for `[NH4+].[O-2].[O-2].[O-2].[O-2].[O-2].[Sb+3].[W]`, under setting [7], the mutagenic call is “active; positive”.
Regarding `CC(C)(C)N1CC1`, for the setting “Species/Cell Type: Schizosaccharomyces pombe, Assay Type: Reverse gene mutation, Assay Code: YEZ+, Evaluation Type: Evaluation A (Pre-1980)”, the mutagenic call is “active; positive”.
For the molecule `COc1cc(/C=N/NC(=O)COc2ccc(Br)cc2CN2CCCCC2)ccc1O`, the mutagenic call (Species/Cell Type: Saccharomyces cerevisiae, Assay Type: Reverse gene mutation, Assay Code: YERT, Evaluation Type: Evaluation A (Pre-1980)) is “no conclusion”.
